# Measurements reported in PubChem BioAssay (NCI).
#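 Abbreviation: GI50, concentration required for 50% inhibition of growth. The concentration for full growth arrest is given as TGI.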
# What was measured:
# Assay in all cases: NCI tumour cell line growth inhibition, 384-well format
# [1] = tested on: SF-295 CNS
# [2] = tested on: BT-549 breast
# [3] = tested on: HL-60(TB) leukemia
# [4] = tested on: TK-10 renal
# [5] = tested on: HS 578T breast
# [6] = tested on: COLO 205 colon
# [7] = tested on: UACC-62 melanoma
# [8] = tested on: NCI-H322M lung
# [9] = tested on: MDA-MB-231 breast
# [10] = tested on: HCT-15 colon
# [11] = tested on: SW-620 colon
# [12] = tested on: LOX IMVI melanoma
# [13] = tested on: SR leukemia
# [14] = tested on: SNB-19 CNS
# [15] = tested on: CCRF-CEM leukemia
# [16] = tested on: MCF7 breast
# [17] = tested on: SF-539 CNS
# [18] = tested on: RPMI-8226 leukemia
# [19] = tested on: CAKI-1 renal
# [20] = tested on: MALME-3M melanoma
# [21] = tested on: NCI-H522 lung
# [22] = tested on: OVCAR-4 ovarian
# [23] = tested on: SK-MEL-28 melanoma
# [24] = tested on: M14 melanoma
# [25] = tested on: A549 NSCLC
# [26] = tested on: OVCAR-5 ovarian
# [27] = tested on: 786-0 renal
# [28] = tested on: NCI-H226 lung
# [29] = tested on: SN12C renal
# [30] = tested on: UO-31 renal
# [31] = tested on: EKVX NSCLC
# [32] = tested on: U251 glioblastoma
# [33] = tested on: HT29 colon
# [34] = tested on: NCI/ADR-RES ovarian
# [35] = tested on: MDA-MB-435 melanoma
# [36] = tested on: IGROV1 ovarian
# [37] = tested on: K-562 leukemia
# [38] = tested on: HOP-92 NSCLC
# [39] = tested on: NCI-H460 NSCLC
# [40] = tested on: MDA-MB-468 breast
# [41] = tested on: T-47D breast
# [42] = tested on: UACC-257 melanoma
# [43] = tested on: HOP-62 NSCLC
# [44] = tested on: SNB-75 CNS
# [45] = tested on: SK-MEL-5 melanoma
# [46] = tested on: MOLT-4 leukemia
# [47] = tested on: A498 renal
# [48] = tested on: KM12 colon
# [49] = tested on: SF-268 CNS
# [50] = tested on: ACHN renal
# [51] = tested on: NCI-H23 lung
# [52] = tested on: SK-OV-3 ovarian
# [53] = tested on: RXF 393 renal
# [54] = tested on: OVCAR-3 ovarian
# [55] = tested on: HCC-2998 colon
# [56] = tested on: OVCAR-8 ovarian
# [57] = tested on: DU-145 prostate
# [58] = tested on: PC-3 prostate
smiles,measurement,setting,value
Nc1ncnc2c1c(-c1cccc(OCc3ccccc3)c1)cn2C1CC(CN2CCC2)C1 (centres undefined),GI50,[1],1890 nM
same,TGI,[1],3310 nM
same,GI50,[2],1370 nM
same,TGI,[2],2680 nM
same,GI50,[3],182 nM
same,TGI,[3],1030 nM
same,GI50,[4],1610 nM
same,TGI,[4],3240 nM
same,GI50,[5],1820 nM
same,TGI,[5],3230 nM
same,GI50,[6],327 nM
same,TGI,[6],1440 nM
same,GI50,[7],1510 nM
same,TGI,[7],2840 nM
same,GI50,[8],1650 nM
same,TGI,[8],4490 nM
same,GI50,[9],1660 nM
same,TGI,[9],3340 nM
same,GI50,[10],1280 nM
same,TGI,[10],2590 nM
same,GI50,[11],1330 nM
same,TGI,[11],2630 nM
same,GI50,[12],1610 nM
same,TGI,[12],2970 nM
same,GI50,[13],1650 nM
same,TGI,[13],3020 nM
same,GI50,[14],2530 nM
same,TGI,[14],7280 nM
same,GI50,[15],2080 nM
same,TGI,[15],3520 nM
same,GI50,[16],360 nM
same,TGI,[16],1680 nM
same,GI50,[17],1760 nM
same,TGI,[17],3150 nM
same,GI50,[18],1830 nM
same,TGI,[18],3230 nM
same,GI50,[19],1650 nM
same,TGI,[19],3220 nM
same,GI50,[20],1060 nM
same,TGI,[20],2250 nM
same,GI50,[21],1720 nM
same,TGI,[21],3120 nM
same,GI50,[22],1890 nM
same,TGI,[22],4040 nM
same,GI50,[23],1430 nM
same,TGI,[23],2740 nM
same,GI50,[24],1620 nM
same,TGI,[24],2980 nM
same,GI50,[25],1550 nM
same,TGI,[25],3070 nM
same,GI50,[26],1300 nM
same,TGI,[26],2860 nM
same,GI50,[27],1610 nM
same,TGI,[27],2970 nM
same,GI50,[28],1190 nM
same,TGI,[28],2960 nM
same,GI50,[29],2310 nM
same,TGI,[29],5800 nM
same,GI50,[30],1610 nM
same,TGI,[30],3020 nM
same,GI50,[31],1410 nM
same,TGI,[31],3100 nM
same,GI50,[32],1870 nM
same,TGI,[32],3390 nM
same,GI50,[33],336 nM
same,TGI,[33],1720 nM
same,GI50,[34],1760 nM
same,TGI,[34],3420 nM
same,GI50,[35],1280 nM
same,TGI,[35],2570 nM
same,GI50,[36],2180 nM
same,TGI,[36],4870 nM
same,GI50,[37],1690 nM
same,TGI,[37],3100 nM
same,GI50,[38],1140 nM
same,TGI,[38],2360 nM
same,GI50,[39],1340 nM
same,TGI,[39],2690 nM
same,GI50,[40],1330 nM
same,TGI,[40],2630 nM
same,GI50,[41],1490 nM
same,TGI,[41],2900 nM
same,GI50,[42],1130 nM
same,TGI,[42],2350 nM
same,GI50,[43],1820 nM
same,TGI,[43],3250 nM
same,GI50,[44],1920 nM
same,TGI,[44],3520 nM
same,GI50,[45],704 nM
same,TGI,[45],2000 nM
same,GI50,[46],1770 nM
same,TGI,[46],3160 nM
same,GI50,[47],1490 nM
same,TGI,[47],2830 nM
same,GI50,[48],1820 nM
same,TGI,[48],3760 nM
same,GI50,[49],1810 nM
same,TGI,[49],3230 nM
same,GI50,[50],1910 nM
same,TGI,[50],3710 nM
same,GI50,[51],1100 nM
same,TGI,[51],2490 nM
same,GI50,[52],1750 nM
same,TGI,[52],3160 nM
same,GI50,[53],1590 nM
same,TGI,[53],2970 nM
same,GI50,[54],1760 nM
same,TGI,[54],3450 nM
same,GI50,[55],1400 nM
same,TGI,[55],2720 nM
same,GI50,[56],1610 nM
same,TGI,[56],3010 nM
same,GI50,[57],2650 nM
same,TGI,[57],11000 nM
same,GI50,[58],1800 nM
same,TGI,[58],3460 nM
CN1CCN(c2cc(C(=O)Nc3cc4cc(-c5cnn(C)c5)ccc4cn3)ccn2)CC1,GI50,[1],99.8 nM
same,TGI,[1],314 nM
same,GI50,[2],28.3 nM
same,TGI,[2],71.4 nM
same,GI50,[3],99.4 nM
same,TGI,[3],219 nM
same,GI50,[4],116 nM
same,TGI,[4],442 nM
same,GI50,[5],38.9 nM
same,TGI,[5],152 nM
same,GI50,[6],26 nM
same,TGI,[6],64.1 nM
same,GI50,[7],27.8 nM
same,TGI,[7],88.7 nM
same,GI50,[8],68.2 nM
same,TGI,[8],858 nM
same,GI50,[9],87 nM
same,TGI,[9],654 nM
same,GI50,[10],39.1 nM
same,TGI,[10],157 nM
same,GI50,[11],33.6 nM
same,TGI,[11],1580 nM
same,GI50,[12],51.7 nM
same,TGI,[12],172 nM
same,GI50,[13],19.5 nM
same,TGI,[13],40.8 nM
same,GI50,[14],41.6 nM
same,TGI,[14],10200 nM
same,GI50,[15],25.6 nM
same,TGI,[15],53.5 nM
same,GI50,[16],55.9 nM
same,TGI,[16],221 nM
same,GI50,[17],121 nM
same,TGI,[17],322 nM
same,GI50,[18],24.5 nM
same,TGI,[18],49.1 nM
same,GI50,[19],35.3 nM
same,TGI,[19],210 nM
same,GI50,[20],84.6 nM
same,TGI,[20],213 nM
same,GI50,[21],26.6 nM
same,TGI,[21],65.5 nM
same,GI50,[22],58.9 nM
same,TGI,[22],187 nM
same,GI50,[23],125 nM
same,TGI,[23],259 nM
same,GI50,[24],75.9 nM
same,TGI,[24],221 nM
same,GI50,[25],30.7 nM
same,TGI,[25],129 nM
same,GI50,[26],167 nM
same,TGI,[26],640 nM
same,GI50,[27],154 nM
same,TGI,[27],316 nM
same,GI50,[28],131 nM
same,TGI,[28],370 nM
same,GI50,[29],55.3 nM
same,TGI,[29],228 nM
same,GI50,[30],158 nM
same,TGI,[30],3160 nM
same,GI50,[31],62.5 nM
same,TGI,[31],1600 nM
same,GI50,[33],138 nM
same,TGI,[33],286 nM
same,GI50,[34],71.4 nM
same,TGI,[34],244 nM
same,GI50,[35],86.9 nM
same,TGI,[35],283 nM
same,GI50,[36],52.1 nM
same,TGI,[36],255 nM
same,GI50,[37],52.8 nM
same,TGI,[37],345 nM
same,GI50,[38],39.6 nM
same,TGI,[38],398 nM
same,GI50,[39],51 nM
same,TGI,[39],190 nM
same,GI50,[40],26.8 nM
same,TGI,[40],53.9 nM
same,GI50,[41],67 nM
same,TGI,[41],340 nM
same,GI50,[42],36.3 nM
same,TGI,[42],107 nM
same,GI50,[43],31.8 nM
same,TGI,[43],145 nM
same,GI50,[44],105 nM
same,TGI,[44],261 nM
same,GI50,[45],22.9 nM
same,TGI,[45],92.2 nM
same,GI50,[46],18 nM
same,TGI,[46],33 nM
same,GI50,[47],32.8 nM
same,TGI,[47],158 nM
same,GI50,[48],32.9 nM
same,TGI,[48],209 nM
same,GI50,[49],142 nM
same,TGI,[49],438 nM
same,GI50,[50],47.5 nM
same,TGI,[50],219 nM
same,GI50,[51],18.9 nM
same,TGI,[51],47.5 nM
same,GI50,[52],28.1 nM
same,TGI,[52],112 nM
same,GI50,[53],118 nM
same,TGI,[53],245 nM
same,GI50,[54],30.2 nM
same,TGI,[54],82.5 nM
same,GI50,[55],105 nM
same,TGI,[55],287 nM
same,GI50,[56],72.4 nM
same,TGI,[56],302 nM
same,GI50,[57],50.2 nM
same,TGI,[57],282 nM
same,GI50,[58],76.7 nM
same,TGI,[58],514 nM
C[C@@H](CN1CC(=O)NC(=O)C1)N1CC(=O)NC(=O)C1,GI50,[3],4320 nM
same,TGI,[3],18400 nM
same,GI50,[4],68000 nM
same,GI50,[5],21200 nM
same,GI50,[6],10600 nM
same,TGI,[6],27800 nM
same,GI50,[11],83400 nM
same,GI50,[13],2150 nM
same,TGI,[13],4680 nM
same,GI50,[14],96100 nM
same,GI50,[15],13700 nM
same,TGI,[15],29400 nM
same,GI50,[16],77700 nM
same,GI50,[18],3650 nM
same,TGI,[18],19700 nM
same,GI50,[20],34600 nM
same,GI50,[21],53900 nM
same,GI50,[24],55700 nM
same,GI50,[25],10100 nM
same,GI50,[29],74400 nM
same,GI50,[39],19700 nM
same,GI50,[40],29100 nM
same,TGI,[40],57900 nM
same,GI50,[45],74800 nM
same,GI50,[46],5070 nM
same,TGI,[46],17200 nM
same,GI50,[48],91700 nM
same,GI50,[51],71800 nM
same,GI50,[57],52400 nM
